Assay results as given in patent US9126989B2, “Compound and methods for treating long QT syndrome” (Gilead Sciences, Inc., priority 2013, dated 2015).
Entries after “also recorded” stand apart in the source; their conditions may differ. Blank lines part the entries; values can stand above or below the compound they belong to.

Key:
[1] = molecular target: T1, cardiac late sodium current (INa) (Homo sapiens, UniProt Q14524); test: Inhibition of the cardiac late sodium current; assay type: biochemical
[2] = molecular target: T1, cardiac late sodium current (INa); conditions: see US 2013/0012492; cited from earlier work
[3] = system: cytochrome P450 (CYP) enzymes; test: Cytochrome P450 inhibition; assay type: in vitro ADME
P-glycoproteins = P-glycoproteins (Homo sapiens, UniProt P08183); test: P-glycoprotein inhibition; assay type: in vitro ADME
patients with LQT3 = test: Phase 1 clinical study in patients with LQT3 (QTc, ECHO, tolerability); assay type: in vivo, human; conditions: for Tolerability: Phase 1; for Change in QTc from baseline: all dose levels (10-60 mg single, multiple dose cohort)
Protocol: In an ongoing Phase 1, effect of oral Compound (I) on the QTc interval in subjects with LQT3 was evaluated. Subjects with LQT3 identified from the LQTS registry with proven mutations in the cardiac sodium channel and a QTc >460 msec will be enrolled. Four sequential single dose cohorts and 1 multiple dose cohort were enrolled and received a single dose of Compound (I) (Cohort 1: 10 mg; Cohort 2: 20 mg; Cohort 3: 30 mg; Cohort-4: 60 mg) or multiple doses of Compound (I) (Cohort 5: Day 1—20 mg, Day 2—40 mg, Days 3-7—6 mg once daily).
Ten subjects were enrolled. Among these 10 subjects, 3 subjects received single oral dose of Compound (I), 5 subjects received Compound (I) at 2 different dose periods, and 2 subjects received Compound (I) at 3 different dose periods. […] Changes in QTc interval from baseline (Day −1 for Cohorts 1-4; average of Day −2 and Day −1 for Cohort 5) were analyzed in 2 different ways: 1) changes in average daytime QTc during 12 hours postdose (QTc interval AUC0-12/12) and 2) maximal time-matched QTc changes within 12 hours postdose. […] In the multiple dose cohort (shown in FIG. 5-6), the effect of Compound (I) on QTc shortening was dose-dependent with a larger QTc shortening after 40 mg on Day 2 compared to 20 mg on Day 1. More importantly, the QTc shortening was sustained during the maintenance doses of 6 mg from Days 3-7.
In addition, effect of Compound (I) on cardiac function was assessed by ECHO. For the single dose cohorts, echocardiography (ECHO) was performed at baseline (Day −1) and at 3 and 6 hours after the single oral dose of Compound (I) on Day 1. For the multiple dose cohort (Cohort 5), ECHO was performed at baseline (Day −1), at 3 and 6 hours after the single oral dose of Compound (I) on Day 1, and at 3 hours after dose on Day 4 and Day 7.

[4] = system: model of long QT syndrome-3 (LQT3); test: Model of LQT-3: action potential duration and beat-to-beat variability
rabbit isolated heart = test: Rabbit isolated heart, E-4031 model of LQT-2 and drug-induced QT prolongation
From the text: E-4031 is an inhibitor of IKr. […] Hearts were paced at a rate of 1 Hz.
The use of rabbits (New Zealand White adult females, 2-4 kg; Western Oregon Rabbit Company, Philomath, Oreg.) in this investigation conformed to the “Guide for the Care and Use of Laboratory Animals” (NIH publication No. 85-23, revised 1996) and was approved by the Institutional Animal Care and Use Committees of Gilead Sciences. Hearts were isolated and perfused by the method of Langendorff as previously described (Wu et al., 2009). Briefly, the atrioventricular nodal area was thermally ablated to produce heart block, and hearts were paced at a rate of 1 Hz. Monophasic action potentials (MAPs) from the left ventricular epicardium and pseudo 12-lead electrocardiograms (ECGs) were recorded. […] The duration of the MAP at the level at which repolarization is 90% complete (MAPD90) was measured.

[5] = system: rabbit isolated wedge preparation; test: Rabbit isolated left ventricular wedge preparation, E-4031 model of LQT-2; conditions: 60 nM E-4031, 300 nM Compound 1, cycle lengths 500, 1000 and 2000 msec
Protocol: E-4031 is an inhibitor of IKr.
Rabbit isolated left ventricular wedge was prepared as previously described (Yan et al, 1996, 2009). Briefly, the chest was opened via a left thoracotomy, and the heart was excised, placed in a cardioplegic solution consisting of cold (4° C.) Tyrode's solution containing 20 mmol/L […], and transported to a dissection tray. Transmural wedges with dimensions of approximately 1×1×0.8 or 0.8×0.8×0.4 cm^3 were dissected from the left ventricle. The tissue was cannulated via a small (diameter, ≈100 μm) branch of the left anterior descending artery or another coronary artery and perfused with cardioplegic solution. The total period of time from excision of the heart to cannulation and perfusion of the artery was less than 4 minutes. Unperfused tissue was carefully removed with a razor blade. The preparation was then placed in a tissue bath and arterially perfused with Tyrode's solution of the following composition (mmol/L): NaCl 129, KCl 4, NaH2PO4 0.9, NaHCO3 20, Ca 1.8, MgSO4 0.5, glucose 5.5, and insulin 1 U/L, buffered with 95% O2/5% CO2 (36±1° C.). The perfusate was delivered to the artery by a roller pump (Cole Panner Instrument Co). Perfusion pressure was monitored with a pressure transducer (World Precision Instruments, Inc) and maintained between 40 and 50 mm Hg by adjustment of the perfusion flow rate. The preparations remained immersed in the arterial perfusate, which was allowed to rise to a level 2 to 3 mm above the tissue surface (36±1° C.).

[6] = PK after single oral dose in patients with LQT-3; assay type: in vivo, human
From the text: This is similar to the PK profile of Compound 1 in healthy volunteers.

[7] = LQT3 patients, listed as Compound (I)
[8] = after single dose administration

T1 sequence (Q14524 whole entry): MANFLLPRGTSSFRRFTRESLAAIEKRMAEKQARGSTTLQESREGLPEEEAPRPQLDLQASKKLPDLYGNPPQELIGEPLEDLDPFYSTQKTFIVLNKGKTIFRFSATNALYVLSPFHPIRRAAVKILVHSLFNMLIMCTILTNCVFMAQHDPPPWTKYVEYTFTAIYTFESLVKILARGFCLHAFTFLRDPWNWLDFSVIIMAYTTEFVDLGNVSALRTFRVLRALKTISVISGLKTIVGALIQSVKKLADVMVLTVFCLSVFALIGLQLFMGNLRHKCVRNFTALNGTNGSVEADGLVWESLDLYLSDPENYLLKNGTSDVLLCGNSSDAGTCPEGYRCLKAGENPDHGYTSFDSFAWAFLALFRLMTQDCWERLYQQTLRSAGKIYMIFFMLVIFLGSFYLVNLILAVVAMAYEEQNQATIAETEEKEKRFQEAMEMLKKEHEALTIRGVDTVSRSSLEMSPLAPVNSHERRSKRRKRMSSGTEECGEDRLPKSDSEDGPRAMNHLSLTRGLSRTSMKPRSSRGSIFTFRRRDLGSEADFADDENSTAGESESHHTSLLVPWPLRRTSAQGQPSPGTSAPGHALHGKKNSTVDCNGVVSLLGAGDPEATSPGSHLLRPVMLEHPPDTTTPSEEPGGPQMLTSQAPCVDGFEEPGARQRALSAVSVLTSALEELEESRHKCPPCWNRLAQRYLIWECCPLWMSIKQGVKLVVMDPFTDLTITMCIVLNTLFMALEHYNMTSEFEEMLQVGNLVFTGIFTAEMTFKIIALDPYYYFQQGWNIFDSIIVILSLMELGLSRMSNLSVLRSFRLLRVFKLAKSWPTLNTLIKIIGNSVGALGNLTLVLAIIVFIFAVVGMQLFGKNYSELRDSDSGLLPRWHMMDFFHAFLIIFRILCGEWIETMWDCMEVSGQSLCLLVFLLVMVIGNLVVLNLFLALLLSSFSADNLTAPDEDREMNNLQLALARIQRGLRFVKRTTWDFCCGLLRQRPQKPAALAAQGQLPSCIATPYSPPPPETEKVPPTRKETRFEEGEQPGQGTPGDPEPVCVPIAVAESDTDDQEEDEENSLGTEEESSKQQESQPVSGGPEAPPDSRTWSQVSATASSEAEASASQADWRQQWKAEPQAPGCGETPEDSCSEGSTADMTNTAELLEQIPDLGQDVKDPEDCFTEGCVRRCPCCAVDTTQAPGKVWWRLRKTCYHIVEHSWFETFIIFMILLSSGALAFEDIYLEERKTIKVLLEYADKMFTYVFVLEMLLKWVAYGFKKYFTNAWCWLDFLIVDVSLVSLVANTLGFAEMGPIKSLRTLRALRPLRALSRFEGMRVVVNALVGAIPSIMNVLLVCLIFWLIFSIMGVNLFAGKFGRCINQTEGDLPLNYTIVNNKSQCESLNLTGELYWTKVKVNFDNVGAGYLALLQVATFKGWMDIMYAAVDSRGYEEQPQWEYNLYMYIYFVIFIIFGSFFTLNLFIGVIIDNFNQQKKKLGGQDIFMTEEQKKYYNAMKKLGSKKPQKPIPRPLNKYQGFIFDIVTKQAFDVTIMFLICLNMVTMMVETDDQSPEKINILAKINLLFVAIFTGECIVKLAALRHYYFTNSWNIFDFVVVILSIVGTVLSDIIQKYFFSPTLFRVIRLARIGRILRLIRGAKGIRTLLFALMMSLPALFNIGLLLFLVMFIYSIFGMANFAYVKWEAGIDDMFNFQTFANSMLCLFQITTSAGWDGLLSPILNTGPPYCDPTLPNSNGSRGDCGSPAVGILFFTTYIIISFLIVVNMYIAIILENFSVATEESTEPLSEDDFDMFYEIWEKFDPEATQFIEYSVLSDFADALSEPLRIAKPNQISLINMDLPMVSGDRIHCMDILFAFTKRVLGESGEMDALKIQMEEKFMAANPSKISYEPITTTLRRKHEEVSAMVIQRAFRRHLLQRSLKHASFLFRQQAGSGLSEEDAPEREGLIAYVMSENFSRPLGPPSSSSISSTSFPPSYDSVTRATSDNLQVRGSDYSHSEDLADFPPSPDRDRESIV
P-glycoproteins, sequence (P08183 whole entry): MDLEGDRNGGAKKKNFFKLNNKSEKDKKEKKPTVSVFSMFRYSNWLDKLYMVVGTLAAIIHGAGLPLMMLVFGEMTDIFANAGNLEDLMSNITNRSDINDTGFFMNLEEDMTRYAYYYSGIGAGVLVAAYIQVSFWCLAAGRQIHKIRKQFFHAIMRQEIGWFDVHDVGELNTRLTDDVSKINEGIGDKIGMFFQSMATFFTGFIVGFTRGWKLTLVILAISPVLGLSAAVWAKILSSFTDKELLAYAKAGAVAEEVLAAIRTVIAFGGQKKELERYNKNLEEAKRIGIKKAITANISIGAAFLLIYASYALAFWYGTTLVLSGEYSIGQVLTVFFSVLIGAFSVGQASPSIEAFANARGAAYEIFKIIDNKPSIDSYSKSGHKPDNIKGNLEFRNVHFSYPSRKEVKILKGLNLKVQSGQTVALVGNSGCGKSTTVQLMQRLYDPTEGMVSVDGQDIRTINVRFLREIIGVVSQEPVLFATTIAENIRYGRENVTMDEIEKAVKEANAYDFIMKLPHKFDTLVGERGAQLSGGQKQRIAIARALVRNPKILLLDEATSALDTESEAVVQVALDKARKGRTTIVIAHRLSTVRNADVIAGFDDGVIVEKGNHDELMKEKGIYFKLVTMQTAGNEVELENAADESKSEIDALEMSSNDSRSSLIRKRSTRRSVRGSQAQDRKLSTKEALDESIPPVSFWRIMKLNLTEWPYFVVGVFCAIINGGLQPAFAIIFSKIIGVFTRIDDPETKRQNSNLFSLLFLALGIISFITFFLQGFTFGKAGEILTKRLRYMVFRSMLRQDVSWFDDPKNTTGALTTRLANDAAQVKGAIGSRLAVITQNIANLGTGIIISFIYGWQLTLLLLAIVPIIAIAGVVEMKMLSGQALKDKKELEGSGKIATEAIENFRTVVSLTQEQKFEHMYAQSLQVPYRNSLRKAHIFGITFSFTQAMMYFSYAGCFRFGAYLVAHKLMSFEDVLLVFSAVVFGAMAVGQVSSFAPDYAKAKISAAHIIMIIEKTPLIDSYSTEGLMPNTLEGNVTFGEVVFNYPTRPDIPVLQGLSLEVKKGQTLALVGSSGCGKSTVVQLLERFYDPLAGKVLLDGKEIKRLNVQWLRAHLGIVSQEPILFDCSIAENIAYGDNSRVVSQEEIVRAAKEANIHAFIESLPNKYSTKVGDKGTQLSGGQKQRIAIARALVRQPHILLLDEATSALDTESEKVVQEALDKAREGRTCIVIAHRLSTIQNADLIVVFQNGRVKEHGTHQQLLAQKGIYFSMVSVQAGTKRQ

Inhibition of the cardiac late sodium current (INa) [1]: potent and selective inhibitors
SMILES: O=C1c2cc(-c3ccc(C(F)(F)F)cc3)ccc2OCCN1Cc1ncccn1 [Compound 2, 4-(pyrimidin-2-ylmethyl)-7-(4-(trifluoromethyl)phenyl)-3,4-dihydrobenzo[f][1,4]oxazepin-5(2H)-one]
Late sodium channel inhibition [2]: potent late sodium channel inhibitors

Inhibition of cytochrome P450 (CYP) enzymes [3]: does not inhibit | Inhibition of P-glycoproteins (P-glycoproteins): does not inhibit | Inhibition of the cardiac late sodium current (INa) [1]: potent and selective inhibitors | Absorption [6, 8]: fast absorption | Clearance [6, 8]: low clearance | Decline of concentration [6, 8]: biphasic decline | Half-life [6, 8]: long half-life | PK profile in LQT3 patients compared with healthy volunteers ([6]; single oral dose, FIG. 4): similar
SMILES: O=C1c2cc(-c3ccc(OC(F)(F)F)cc3)ccc2OCCN1Cc1ncccn1 [Compound 1, 4-(pyrimidin-2-ylmethyl)-7-(4-(trifluoromethoxy)phenyl)-3,4-dihydrobenzo[f][1,4]oxazepin-5(2H)-one]
Efficacy (QTc shortening or T-wave morphology) (patients with LQT3; 10 mg, three patients with inherited LQT3): preliminary efficacy | Dependence of QTc shortening on mutations or concomitant use of b-blockers (patients with LQT3; LQT3 patients): independent | Tolerability (patients with LQT3; LQT3 patients): well tolerated | Tolerability (patients with LQT3; [7]): well tolerated; also recorded: well-tolerated | Change in QTc from baseline (patients with LQT3; LQT3 patients): changes in QTc from baseline | Change in QTc from baseline (patients with LQT3; [7]): Shortening of QTc was observed at all dose levels; also recorded: shortens QTc interval | Left ventricular (LV) functions / cardiac function assessed by ECHO (patients with LQT3; LQT3 patients, single and multiple dose cohorts, listed as Compound (I)): did not affect; also recorded: no effect | Treatment of long QT syndrome in humans, specifically LQT3 (patients with LQT3; human, in vivo): effective | Persistence of QTc shortening (patients with LQT3; maintenance doses of 6 mg from Days 3-7): sustained | Dose dependence of QTc shortening (patients with LQT3; multiple dose cohort, 40 mg on Day 2 compared to 20 mg on Day 1): dose-dependent | QTc shortening (patients with LQT3; ten LQT-3 patients, single dose 10 mg, 20 mg, 30 mg or 60 mg): 20-100 milliseconds | Beat-to-beat variability ([4]; model of LQT3, FIG. 2): reduction | Action potential duration (APD) ([4]; model of LQT-3, FIG. 1): shortening | Prolonged monophasic action potential (MAP) (rabbit isolated heart; 60 nM E-4031, 100 and 300 nM Compound 1, paced at 1 Hz): shortens | Torsades de pointes (TdP) ventricular tachyarrhythmia (rabbit isolated heart; induced by 60 nM E-4031, paced at 1 Hz): suppresses | Late sodium channel inhibition [2]: potent late sodium channel inhibitors | Prolonged action potential duration (APD) [5]: shortens | QT interval [5]: shortens | Tpeak to Tend (TpTe) [5]: shortens
